Consider four molecules from article PMC11018795, “The regulatory relationship between NAMPT and PD-L1 in cancer and identification of a dual-targeting inhibitor” (EMBO Molecular Medicine, 2024).

In series [1] the test system is NAD+ content of A2780 cells. As to the kind of experiment: NAD+ assay in A2780 cells. The series is classed as cell-based, human. Here is the method: (§1) NAD^+ assays were performed to quantify the total NAD^+ content. NAD^+ assay was performed using the NAD/NADH Assay Kit (ab65348; Abcam) according to the manufacturer’s recommended protocol.
The subject of series [2] is PD-L1 expression in A2780 and LLC cells. As to the kind of experiment: PD-L1 expression (western blot, flow cytometry, qRT-PCR) in A2780 and LLC cells. The series is classed as cell-based, human, mouse. The following applies: 72 h. Here is the method:
For surface marker detection, tumor single-cell suspensions and spleen lymphocytes were incubated at 4 °C for 30 min in PBS with 0.1% Fixable Viability Dye (eBioscience 65-0863-14). Cells were washed and incubated in staining buffer (PBS with 1% FBS) with surface marker antibodies, the dilution ratio of all flow antibodies was 1:200 (BioLegend, CD3-APC 100235, CD3-PE 100205, CD4-FITC 100405, CD8-APC 100711, CD8-PE 100707, CD45-APC 103112, PD-L1-PE 124307, adsorbed secondary antibody-APC, and CD69-PE 104511). The cells were then washed and resuspended in staining buffer for flow cytometry. For cytokine detection, tumor single-cell suspensions and spleen lymphocytes were incubated in RPMI-1640 with 10% FBS and 0.2% Cell Stimulation Cocktail (plus protein transport inhibitors) (eBioscience 00-4975-93) at 37 °C for 12 h. […] Flow cytometry was performed on ACEA NovoCyte, and the data were analyzed using NovoExpress. […]
Total RNA was isolated using TRIzol reagent (Invitrogen, 15596026) according to the manufacturer’s protocol. […] Quantitative real-time PCR analysis was performed by mixing 10 μl SYBR, 0.4 μM forward primer, 0.4 μM reverse primer, 1 μl cDNA, and 8.2 μl distilled water per sample with Top Green qPCR SuperMix (Transgene, AQ601-04) by the manufacturer’s protocols. […]

The subject of series [3] is pyruvate content of A549 cells. As to the kind of experiment: Pyruvate (PA) content, A549 cells with or without PBMC. The series is classed as cell-based, human. Also noted: unit not given beside the values. The following applies: listed as BM202. The text has this:
Supplement 44321_2024_51_MOESM3_ESM.zip/Fig-2-K-PA.xlsx, sheet "Sheet1" | column: A549

Series [4] concerns IFN-γ and TNF-α secretion, LLC cells co-cultured with T cells. Put plainly: ELISA of IFN-γ and TNF-α, LLC cells under co-culture condition. Also noted: unit not given here. Particulars: in vitro, listed as B202. The series is classed as cell-based, mouse.
Series [5] relates to NAD+ content of LLC cells. Put plainly: NAD+ content in LLC cells with or without T cells. Also noted: unit not given here. Particulars: listed as BM202. The series is classed as cell-based, mouse. The procedure: as §1
The subject of series [6] is NAD+ content of A549 cells. As to the kind of experiment: NAD+ content, A549 cells with or without PBMC. More on the design: unit not given here. Particulars: listed as BM202. The series is classed as cell-based, human. Here is the method:
as §1

Series [7] concerns pyruvate content of A549 KO HIF-1α cells. As to the kind of experiment: Pyruvate (PA) content, A549 KO HIF-1α cells with or without PBMC. The series is classed as cell-based, human. Also noted: unit not given beside the values. The following applies: listed as BM202. The source says: Supplement 44321_2024_51_MOESM3_ESM.zip/Fig-2-K-PA.xlsx, sheet "Sheet1" | column: A549 KO HIF-1α

Series [8] has as its system glycolytic genes in LLC cells. As to the kind of experiment: RT-PCR of glycolytic genes in LLC cells with or without T cells. The series is classed as cell-based, mouse. Also noted: key to HK2 mRNA level / Glut1 mRNA level / Aldoa mRNA level / Eno1 mRNA level: relative mRNA level normalized to GAPDH (endogenous control). The following applies: listed as B202. The procedure:
(§2) Total RNA was isolated using TRIzol reagent (Invitrogen, 15596026) according to the manufacturer's protocol. First-strand cDNA synthesis was performed using a RevertAid First Strand cDNA Synthesis Kit (Thermo Fisher, […]). Quantitative real-time PCR analysis was performed by mixing 10 μl SYBR, 0.4 μM forward primer, 0.4 μM reverse primer, 1 μl cDNA, and 8.2 μl distilled water per sample with Top Green qPCR SuperMix (Transgene, AQ601-04) by the manufacturer's protocols. GAPDH was used as an endogenous control. All qRT-PCRs were set up in triplicate using three biological replicates for each sample. Primer information is shown in Appendix Table S1.

Series [9] has as its system glycolytic genes in A549 cells. As to the kind of experiment: RT-PCR of glycolytic genes, A549 cells co-cultured with PBMC. The series is classed as cell-based, human. More on the design: key to Aldoa mRNA level / Eno1 mRNA level / HK2 mRNA level / Glut1 mRNA level: relative mRNA level normalized to GAPDH (endogenous control). Particulars: listed as B202. The procedure:
as §2

The subject of series [10] is NAD+ content of A549 KO HIF-1α cells. As to the kind of experiment: NAD+ content, A549 KO HIF-1α cells with or without PBMC. The series is classed as cell-based, human. More on the design: unit not given here. Particulars: listed as BM202. Here is the method:
as §1

Series [11] relates to pyruvate content of LLC cells. Put plainly: Pyruvate (PA) content in LLC cells with or without T cells. More on the design: unit not given beside the values. The series is classed as cell-based, mouse. Particulars: listed as B202. The source says: Supplement 44321_2024_51_MOESM3_ESM.zip/Fig-2-G.xlsx, sheet "Sheet1" | column: "-T cells; "+T cells
Series [12] concerns glycolytic genes in A549 KO HIF-1α cells. Put plainly: RT-PCR of glycolytic genes, A549 KO HIF-1α cells co-cultured with PBMC. The series is classed as cell-based, human. Particulars: A549 KO HIF-1α co-cultured with PBMC; listed as B202. Here is the method:
as §2

Series [13] relates to A20 tumors. As to the kind of experiment: A20 tumor-bearing Balb/c mice. The following applies: A20 model; FK866 20 mg/kg, LZFPN-90 20 and 40 mg/kg i.p. The series is classed as in vivo, mouse.
The test system of series [14] is LLC OE NAMPT/PD-L1 tumors. As to the kind of experiment: LLC OE NAMPT/PD-L1 tumor-bearing C57BL/6 mice. The series is classed as in vivo, mouse. The following applies: 20 mg/kg i.p.; 14 days; Fig 7B.
For series [15], the system named is NAD+ content of LLC OE NAMPT/PD-L1 tumor tissue. As to the kind of experiment: NAD+ in tumor tissue, LLC OE NAMPT/PD-L1 mouse model. The series is classed as in vivo. Particulars: 20 mg/kg; tumor tissue.

“And” between values parts separate entries of the source, which are not always exact repeats. Identical values can stand only once.

For `NC(=O)c1ccc[n+]([C@@H]2O[C@H](COP(=O)([O-])O)[C@@H](O)[C@H]2O)c1` [NMN, nicotinamide mononucleotide], the “Relative NAD+” value was 79.1005 and 77.5282 in series [1] (NMN 1 μM added to LZFPN-90 (NMN 0 μM values equal those of 5 nM LZFPN-90)); 81.63 and 81.9669 in [1] (NMN 5 μM added to LZFPN-90); 85.5982 and 82.7424 in [1] (NMN 10 μM added to LZFPN-90); 92.0905 and 93.6414 in [1] (NMN 20 μM added to LZFPN-90); 91.3204 and 94.481 in series [1] (NMN 40 μM added to LZFPN-90).

Regarding `CC(NC(=O)c1ccccc1/N=C/c1c(O)ccc2ccccc12)c1ccccc1` (stereo not shown) [Sirtinol], the “effect on PD-L1 expression” value in [2] was “PD-L1 was upregulated at both the mRNA and protein levels”.

With `COc1nc(OCc2cccc(-c3ccccc3)c2C)ccc1CNCCNC(C)=O` [BMS202], the “content of pyruvate (PA)” value was 0.2451 and 0.2361 and 0.2328 in series [3] (+PBMC); 0.1485 and 0.1357 and 0.1294 in [3] (-PBMC); 0.1117 and 0.1102 and 0.1239 in series [7] (+PBMC); 0.09589 and 0.0979 and 0.1044 in series [7] (-PBMC); 0.5383 and 0.5346 and 0.5309 in [11] (+T Cells); 0.3322 and 0.3345 and 0.3513 in [11] (-T Cells). For the same molecule, the “IFN-γ (ELISA)” value in series [4] is 155.867 and 141.57 and 156.336. The “TNF-α (ELISA)” value in [4] is 199.656 and 157.29 and 212.022. Also, the “content of NAD+” value in series [5] (taken as +T cells by analogy with Fig 2G) was 6.047 and 6.219 and 6.464; in series [5] (taken as -T cells by analogy with Fig 2G) it was 11.761 and 12.9475 and 11.7876; in [6] (+PBMC) it was 8.982 and 8.901 and 8.955; in [6] (-PBMC), 11.875 and 11.7227 and 11.9827; in series [10] (+PBMC), 10.2853 and 11.0822 and 11.211; in series [10] (-PBMC), 12.9598 and 12.8438 and 11.842. In addition, the “Eno1 mRNA level” value is 3.494 and 3.959 and 2.858 in series [8] (+T Cells); 0.7778 and 1.3449 and 0.7359 in series [8] (-T Cells); 1.184 and 1.457 and 1.192 in [9]; 0.9159 and 1.082 and 0.8085 in series [12]. Besides, the “HK2 mRNA level” value in series [8] (+T Cells) was 2.644 and 2.833 and 1.744; in series [8] (-T Cells), 1.261 and 1.177 and 0.9693; in series [9], 4.691 and 5.816 and 5.352; in series [12] it was 0.02498 and 0.01465 and 0.021. Further, the “Pfk1 mRNA level” value is 5.686 and 6.904 in series [8] (+T Cells); 1.211 and 0.6057 in series [9]; 0.7631 and 0.9395 and 1 in [12]. The “Aldoa mRNA level” value in series [8] (-T Cells) is 0.06048 and 0.109 and 0.06804; in [9] it was 1.286 and 1.53 and 1.628; in series [12] it was 0.4841 and 0.4127 and 0.7087. Moreover, the “Glut1 mRNA level” value in [8] (-T Cells) was 0.3392 and 0.2003 and 0.2483; in [9], 1.195 and 1.4406 and 1.289.

Turning to `O=C(/C=C/c1cccnc1)NCCCCC1CCN(C(=O)c2ccccc2)CC1` [FK866, reference compound], the “effect on mouse organ or body weight” value in [13] is “caused a reduction in the body weight of the mice”. In addition, in series [14], the “TIR / tumor growth inhibition (TGI) rate at endpoint” value was 43.62%. Moreover, the “effect on PD-L1 expression” value in series [2] is “upregulated global and membrane PD-L1 expression”. Moreover, the “NAD+ in 20 mg tissue” value in series [15] was 98.7342 and 119.831 and 110.802.
